14 molecules from ChEMBL document CHEMBL2146447, “Synthesis and antimicrobial activity of amido linked pyrrolyl and pyrazolyl-oxazoles, thiazoles and imidazoles” (2011) can be followed below.

Type in all cases: functional
Experiment [1] has as its system Bacillus subtilis. Description: Antibacterial activity against Bacillus subtilis at 100 ug after 24 hrs by agar well diffusion method. Particulars: for zone of inhibition at 100 µg/disc: read-out: DIZ.
For experiment [2], the system named is Penicillium chrysogenum. Description: Antifungal activity against Penicillium chrysogenum at 100 ug after 48 hrs by agar well diffusion method. The following applies: for zone of inhibition at 100 µg/disc: read-out: DIZ.
In experiment [3] the test system is Klebsiella pneumoniae. The experiment in a line: Antibacterial activity against Klebsiella pneumoniae at 100 ug after 24 hrs by agar well diffusion method. The following applies: for zone of inhibition at 100 µg/disc: read-out: DIZ.
Experiment [4] relates to Aspergillus niger. Description: Antifungal activity against Aspergillus niger at 50 ug after 48 hrs by agar well diffusion method. The following applies: for zone of inhibition at 50 µg/disc: read-out: DIZ.
Experiment [5] deals with Pseudomonas aeruginosa. The experiment in a line: Antibacterial activity against Pseudomonas aeruginosa at 100 ug after 24 hrs by agar well diffusion method. Particulars: for zone of inhibition at 100 µg/disc: read-out: DIZ.
The test system of experiment [6] is Pseudomonas aeruginosa. Description: Antibacterial activity against Pseudomonas aeruginosa at 50 ug after 24 hrs by agar well diffusion method. The following applies: for zone of inhibition at 50 µg/disc: read-out: DIZ.
Experiment [7] relates to Bacillus subtilis. Description: Antibacterial activity against Bacillus subtilis at 50 ug after 24 hrs by agar well diffusion method. Particulars: for zone of inhibition at 50 µg/disc: read-out: DIZ.
Experiment [8] deals with Klebsiella pneumoniae. Description: Antibacterial activity against Klebsiella pneumoniae at 50 ug after 24 hrs by agar well diffusion method. Particulars: for zone of inhibition at 50 µg/disc: read-out: DIZ.
For experiment [9], the system named is Staphylococcus aureus. Description: Antibacterial activity against Staphylococcus aureus at 100 ug after 24 hrs by agar well diffusion method. The following applies: for zone of inhibition at 100 µg/disc: read-out: DIZ.
For experiment [10], the system named is Penicillium chrysogenum. The experiment in a line: Antifungal activity against Penicillium chrysogenum at 50 ug after 48 hrs by agar well diffusion method. Particulars: for zone of inhibition at 50 µg/disc: read-out: DIZ.
In experiment [11] the test system is Staphylococcus aureus. The experiment in a line: Antibacterial activity against Staphylococcus aureus assessed at 50 ug after 24 hrs by agar well diffusion method. The following applies: for zone of inhibition at 50 µg/disc: read-out: DIZ.
In experiment [12] the test system is Aspergillus niger. Description: Antifungal activity against Aspergillus niger at 100 ug after 48 hrs by agar well diffusion method. The following applies: for zone of inhibition at 100 µg/disc: read-out: DIZ.

Calls of active or inactive are those of the source. The calls are words filed in the database; no cut-off is given here.

Take `O=C(Nc1nc(-c2ccc(Cl)cc2)cs1)C1=NNCC1c1ccccc1` (stereo not drawn): the zone of inhibition at 100 µg/disc in [1] is 26 mm; in [2], 31 mm; in experiment [3], 28 mm; in experiment [5], 23 mm; in [9], 27 mm; in experiment [12] it was 29 mm. For the same molecule, the zone of inhibition at 50 µg/disc in experiment [4] is 28 mm; in [6], 22 mm; in experiment [7], 25 mm; in experiment [8], 25 mm; in experiment [10], 28 mm; in [11], 24 mm.
Consider `O=C(Nc1nc(-c2ccc(Cl)cc2)cs1)c1c[nH]cc1-c1ccccc1`, for which the zone of inhibition at 100 µg/disc in [1] is 29 mm; in [2], 33 mm; in experiment [3], 30 mm; in experiment [5] it was 25 mm; in experiment [9], 27 mm; in [12] it was 31 mm. Also, the zone of inhibition at 50 µg/disc in experiment [4] worked out at 29 mm; in [6] it was 23 mm; in experiment [7], 27 mm; in experiment [8], 29 mm; in experiment [10] it was 30 mm; in experiment [11] it was 26 mm.
As for `O=C(Nc1nc(-c2ccccc2)c[nH]1)c1c[nH]cc1-c1ccccc1`, the zone of inhibition at 100 µg/disc in experiment [1] came out at 20 mm; in experiment [2] it was 20 mm; in experiment [3], 22 mm; in [5], 15 mm; in experiment [9], 17 mm; in experiment [12], 18 mm. In addition, the zone of inhibition at 50 µg/disc in [4] was determined as 16 mm; in experiment [6], 14 mm; in [7] it was 18 mm; in [8], 20 mm; in experiment [10], 17 mm; in experiment [11], 15 mm.
Turning to `O=C(Nc1nc(-c2ccc(Cl)cc2)co1)C1=NNCC1c1ccccc1` (stereo not drawn), the zone of inhibition at 100 µg/disc was determined as 20 mm in experiment [1]; 27 mm in experiment [2]; 24 mm in [3]; 19 mm in [5]; 18 mm in experiment [9]; 25 mm in experiment [12]. For the same molecule, the zone of inhibition at 50 µg/disc in experiment [4] turned out to be 23 mm; in [6], 17 mm; in [7] it was 17 mm; in experiment [8], 22 mm; in experiment [10], 24 mm; in experiment [11] it was 17 mm.
Regarding `Cc1ccc(-c2coc(NC(=O)/C=C/c3ccccc3)n2)cc1`, the “diameter of the inhibition zone (DIZ)” value in [1], in experiment [2], in experiment [3], in experiment [4], in [5] and in experiment [6] was “inactive” each time. The “diameter of the inhibition zone (DIZ)” value in experiment [7], in experiment [8], in [9], in [10], in [11] and in experiment [12] was “inactive” each time.
Consider `O=C(Nc1nc(-c2ccccc2)co1)C1=NNCC1c1ccccc1` (stereo not drawn), for which the “diameter of the inhibition zone (DIZ)” value in experiment [1], in experiment [2], in experiment [3], in experiment [4], in [5] and in experiment [6] was “inactive” throughout. Moreover, the “diameter of the inhibition zone (DIZ)” value in experiment [7], in experiment [8], in experiment [9], in experiment [10], in experiment [11] and in [12] was “inactive” each time.
For the molecule `Cc1ccc(-c2csc(NC(=O)C3=NNCC3c3ccccc3)n2)cc1` (stereo not drawn), the zone of inhibition at 100 µg/disc in experiment [1] is 18 mm; in experiment [2], 18 mm; in [3], 20 mm; in [5] it was 13 mm; in [9], 15 mm; in experiment [12], 16 mm. Besides, the zone of inhibition at 50 µg/disc was determined as 13 mm in experiment [4]; 12 mm in [6]; 16 mm in experiment [7]; 18 mm in experiment [8]; 15 mm in [10]; 13 mm in experiment [11].
For the molecule `O=C(/C=C/c1ccccc1)Nc1nc(-c2ccccc2)c[nH]1`, the zone of inhibition at 100 µg/disc in [1] stood at 24 mm; in experiment [2], 24 mm; in experiment [3], 26 mm; in experiment [5], 17 mm; in experiment [9], 21 mm; in experiment [12], 22 mm. The zone of inhibition at 50 µg/disc amounted to 19 mm in [4]; 16 mm in [6]; 22 mm in experiment [7]; 24 mm in experiment [8]; 21 mm in experiment [10]; 19 mm in experiment [11].
As to `Cc1ccc(-c2csc(NC(=O)c3c[nH]cc3-c3ccccc3)n2)cc1`, the zone of inhibition at 100 µg/disc in experiment [1] came out at 21 mm; in experiment [2], 21 mm; in experiment [3], 23 mm; in [5], 15 mm; in [9], 18 mm; in experiment [12], 19 mm. The zone of inhibition at 50 µg/disc was determined as 18 mm in experiment [4]; 13 mm in experiment [6]; 19 mm in experiment [7]; 21 mm in experiment [8]; 18 mm in [10]; 16 mm in [11].
Turning to `O=C(Nc1nc(-c2ccccc2)co1)c1n[nH]cc1-c1ccccc1`, the zone of inhibition at 100 µg/disc in [1] came out at 15 mm; in [2] it was 15 mm; in experiment [3], 17 mm; in experiment [5], 12 mm; in experiment [9], 12 mm; in [12] it was 13 mm. Further, the zone of inhibition at 50 µg/disc in experiment [4] came to 10 mm; in experiment [6] it was 10 mm; in experiment [7], 13 mm; in experiment [8], 15 mm; in experiment [10], 12 mm; in experiment [11] it was 10 mm.
In the case of `Cc1ccc(-c2c[nH]c(NC(=O)c3c[nH]cc3-c3ccccc3)n2)cc1`, the zone of inhibition at 100 µg/disc in [1] came out at 19 mm; in [2], 19 mm; in experiment [3], 21 mm; in experiment [5] it was 14 mm; in [9] it was 16 mm; in experiment [12], 17 mm. Further, the zone of inhibition at 50 µg/disc in experiment [4] is 14 mm; in [6], 13 mm; in experiment [7], 17 mm; in experiment [8], 19 mm; in experiment [10], 16 mm; in experiment [11], 14 mm.
Take `O=C(Nc1nc(-c2ccccc2)cs1)c1c[nH]cc1-c1ccccc1`: the zone of inhibition at 100 µg/disc in [1] came out at 22 mm; in [2], 22 mm; in experiment [3] it was 24 mm; in [5], 16 mm; in [9], 19 mm; in experiment [12], 20 mm. The zone of inhibition at 50 µg/disc in experiment [4] is 18 mm; in [6], 15 mm; in experiment [7] it was 20 mm; in experiment [8], 22 mm; in [10], 19 mm; in [11] it was 17 mm.
`Cc1ccc(-c2csc(NC(=O)c3n[nH]cc3-c3ccccc3)n2)cc1`: the zone of inhibition at 100 µg/disc in [1] was 13 mm; in experiment [2], 13 mm; in [3] it was 15 mm; in [5], 11 mm; in [9] it was 11 mm; in experiment [12] it was 11 mm. In addition, the zone of inhibition at 50 µg/disc turned out to be 8 mm in experiment [4]; 8 mm in experiment [6]; 10 mm in experiment [7]; 13 mm in experiment [8]; 10 mm in [10]; 9 mm in experiment [11].
For the molecule `O=C(/C=C/c1ccccc1)Nc1nc(-c2ccc(Cl)cc2)cs1`, the zone of inhibition at 100 µg/disc turned out to be 29 mm in [1]; 35 mm in [2]; 35 mm in experiment [3]; 27 mm in experiment [5]; 32 mm in experiment [9]; 33 mm in [12]. Further, the zone of inhibition at 50 µg/disc in experiment [4] was found to be 31 mm; in experiment [6] it was 25 mm; in experiment [7], 27 mm; in [8], 33 mm; in experiment [10] it was 32 mm; in [11], 29 mm.
